Experimental data taken from ChEMBL document CHEMBL1158661, “Celenamide E, a Tripeptide Alkaloid from the Patagonian Sponge Cliona chilensis” (J Nat Prod, 1998).
The source made the active and inactive calls.

What was measured:
Assay type in all cases: functional, organism-based
Staphylococcus aureus = assay: Antibiotic activity against Staphylococcus aureus at 50 ug/disk
Micrococcus luteus = assay: Antibiotic activity against Micrococcus luteus at 50 ug/disk
Bacillus subtilis = assay: Antibiotic activity against Bacillus subtilis at 50 ug/disk
Enterococcus faecalis = assay: Antibiotic activity against Enterococcus faecalis at 50 ug/disk

Measured: Activity

N/C(=C\c1cc(O)c(O)c(O)c1)C(=O)N[C@@H](Cc1c[nH]c2cc(Br)ccc12)C(=O)N/C=C/c1ccc(O)c(O)c1
active: all assays above
